The text below walks through data of patent publication US20070280975A1, “Method for Producing Maca Extract” (Suntory Limited, priority 2004, published 2007).

The structures appear in SMILES notation.

The subject of this experiment is mast cells. Briefly: Suppressive effect on the isolation of histamine from mast cells (compound 48/80 induced). The format is cell-based, Wister rats. Conditions: DSCG 0.1 mg/mL; same line of test procedures. The procedure:
The anti-allergic effects of the Maca extract of the present invention can be evaluated by the suppressive effect on the isolation of histamine from mast cells. The Suppressive Effect on the Isolation of Histamine from Mast Cells The test was conducted according to the method of Yuko HIRAI, et al. (Natural Medicines: Vol. 37, p374-380, 1983). That is, Tyrode was interperitoneally injected to Wister rats bled to death and peritoneal cavity cells were taken. Therefrom, mast cells were isolated by the multilevel centrifugal method using Bovine Serum Albumin (BSA)/physiological saline (relative gravity: 1.068). […] The resultant was then ice cooled and amount of histamine in the supernatant after centrifugation (150 g×5 minutes) was measured by high performance liquid chromatography with fluorescence detector attachment. […] The solution obtained was each measured to 0.25 mg/mL, and the above explained suppressive effect on the isolation of histamine from mast cell was evaluated. On the other hand, the above explained suppressive effect on the isolation of histamine from mast cell was evaluated for control solutions 1 to 3 which were obtained in the same procedures as for the solutions of the present invention except for extraction condition such as extraction temperature and ethanol concentration.

In the case of `O=C(O)c1cc(=O)c2c(OCC(O)COc3cccc4oc(C(=O)O)cc(=O)c34)cccc2o1` [DSCG, sodium cromoglycate], the “suppressive effect on isolation of histamine” value amounted to 50%.
